For series [1], the system named is PtELO6 (Δ6-elongase). Description: Substrate specificity of PtELO6 in yeast (feeding, GLC of FAMEs). The class given is cell-based, Phaeodactylum tricornutum. As to conditions: fatty acids fed to yeast pYES2-PtELO6.
Series [2] concerns ELO(XI) elongase. Description: Expression of ELO(XI) in yeast (feeding, GLC of FAMEs). As to conditions: amounts fed: in each case 250 μM. Format: cell-based, Xenopus laevis. As for the experimental part: (§1) The yeasts were subsequently plated onto complete uracil dropout minimal medium supplemented with 2% glucose.
(§2) Fatty acid methyl esters (FAMEs) were prepared from the yeast cell sediments by acid methanolysis. […] The FAMEs were extracted by twice extracting with petroleum ether (PE). […] (holding).
(§3) Thereafter, the FAMEs were analyzed via GLC.

For series [3], the system named is ELO(Ci) elongase. Description: Expression of ELO(Ci) in yeast (feeding, GLC of FAMEs). The class given is cell-based, Ciona intestinalis. The following applies: amounts fed: in each case 250 μM. The protocol: The yeasts were subsequently plated onto complete uracil dropout minimal medium supplemented with 2% glucose. […] Fatty acid methyl esters (FAMEs) were prepared from the yeast cell sediments by acid methanolysis. […] The FAMEs were extracted by twice extracting with petroleum ether (PE). […] (holding). […] Thereafter, the FAMEs were analyzed via GLC.

The subject of series [4] is BioTaurELO1 Δ5-elongase. Format: cell-based, Thraustochytrium aureum ATCC34304. As for the experimental part:
as §1
(§4) The substrate specificity of BioTaurELO1 was determined after expression and feeding of various fatty acids (FIG. 6). […] After the fatty acids had been extracted from the yeasts, they were transmethylated and separated by gas chromatography. The elongation products originating from the two fatty acids which had been fed are identified by arrows.

Series [5] concerns biosynthesis of DHA (OmElo3, Euglena gracilis Δ4-desaturase, Phaeodactylum tricornutum Δ5-desaturase). Description: Reconstitution of the synthesis of DHA in yeast by coexpressing OmElo3, EgD4 and PtD5. The class given is cell-based, Saccharomyces cerevisiae. As for the experimental part: The reconstitution of the biosynthesis of DHA (22:6 ω3) was carried out starting from EPA (20:5 ω3) or stearidonic acid (18:4 ω3) by coexpressing OmElo3 together with the Euglena gracilis Δ4-desaturase or the Phaeodactylum tricornutum Δ5-desaturase and the Euglena gracilis Δ4-desaturase. To this end, the expression vectors pYes2-EgD4 and pESCLeu-PtD5 were additionally constructed. The abovementioned yeast strain which is already transformed with pYes3-OmElo3 (SEQ ID NO: 55), was then transformed further with pYes2-EgD4, or simultaneously with pYes2-EgD4 and pESCLeu-PtD5. […] The cultures were subsequently incubated for a further 120 hours at 15° C.
The additional introduction of the EEgΔ4-desaturase led to the conversion of 22:5 ω3 into 22:6 ω3 DHA. After coexpression of OmElo3 and EgD4, up to 3% DHA was detected in yeasts.
In a further coexpression experiment, OmElo3, EgD4 and a Δ5-desaturase from P. tricomutum (PtD5) were expressed together. The transgenic yeasts were fed stearidonic acid (18:4 ω3) and analyzed (FIG. 4). OmElo3 elongated the fed fatty acid 18:4 ω3 to give 20:4 ω3 (60% elongation). The latter was desaturated by PtD5 to give 20:5 ω3. The PtD5 activity amounted to 15%. Furthermore, 20:5 ω3 was elongated by […] to give 22:5 ω3. Thereafter, the newly synthesized 22:5 ω3 was desaturated to give 22:6 ω3 (DHA). Up to 0.7% of DHA was obtained in these experiments.

In series [6] the test system is TL16y2 Δ5-elongase. Description: Expression of TL16y2 in yeast (feeding experiments, GC). Format: cell-based, Thraustochytrium ssp. The protocol: as §1, §4
The functionality and substrate specificity of TL16y2 were determined after expression and feeding of various fatty acids. […] The feeding experiments were carried out in the same manner as described for BioTaurELO1. The substrates which have been fed can be detected in large amounts in all transgenic yeasts. […] This means that the gene TL16y2 has been expressed functionally.

The subject of series [7] is OtElo2 (Δ6-elongase). The class given is cell-based, Ostreococcus tauri.
Series [8] concerns OtElo2.1 (Δ6-elongase). The class given is cell-based, Ostreococcus tauri.
Series [9] relates to OtElo1.2 (Δ5-elongase). The class given is cell-based, Ostreococcus tauri. The following applies: yeast transformed with pOTE1.2 (Table 18).
Series [10] has as its system OtElo1 (Δ5-elongase). The class given is cell-based, Ostreococcus tauri. As to conditions: yeast transformed with pOTE1 (Table 18).
The subject of series [11] is TpELO3 (Δ6-elongase). Description: Expression of TpELO3 in yeast (feeding, GLC of FAMEs). Format: cell-based, Thalassiosira pseudonana. As for the experimental part:
as §1, §2, §3

Series [12] has as its system OmELO2. Description: Functional characterization of OmELO2 in yeast (fatty acid feeding, GLC of FAMEs). The following applies: expression in yeast. Format: cell-based, Oncorhynchus mykiss.
The test system of series [13] is OmElo3 elongase. Description: Functional characterization of OmELO3 in yeast (fatty acid feeding, GLC of FAMEs). Format: cell-based, Oncorhynchus mykiss. As to conditions: expression in yeast, different substrates.
Where [14] appears, read: fatty acid fed to yeast expressing BioTaurELO1.
The mark [15] stands for this setting: 250 μm fatty acid fed (Table 7).

Like-named read-outs stand apart in the source and are kept apart here.

In the case of eicosadienoic acid [20:2^Δ11,14], the “conversion by PtELO6” value in [1] was “not converted”.
On to `CCCCCC=CCC=CCC=CCC=CCCCCCC(=O)O` [22:4^Δ7,10,13,16, docosatetraenoic acid], for which, in series [1], the “conversion by PtELO6” value is reported as “not converted”. The “Conversion of the starting materials by ELO(XI) in %” value (“Conversion … by ELO(XI) in %” for short) in [2] is recorded as 0%. Further, the “Conversion of the starting materials by ELO(Ci) in %” value (“Conversion … by ELO(Ci) in %” below) in [3] was determined as 0%.
`CC/C=C\C/C=C\C/C=C\C/C=C\CCCCC(=O)O` [18:4^Δ6,9,12,15, stearidonic acid] registered a conversion rate in [4] (setting [14]) of 65.66%. In addition, the “elongation of 18:4 ω3 to 20:4 ω3” value in series [5] (coexpression of OmElo3, EgD4 and PtD5, fed 18:4 ω3) is listed as 60%. In addition, in series [6] (setting [15]), the “conversion rate in %” value turned out to be 79.4%. For the same molecule, in series [2], the “Conversion … by ELO(XI) in %” value amounted to 20%. In addition, the “Conversion … by ELO(Ci) in %” value in [3] came out at 3%. For the same molecule, in series [7] (yeast transformed with pOTE2 (Table 19)), the “Conversion rate of OtElo2 (in %)” value is listed as 21.1%. For the same molecule, the “Conversion rate of OtElo2.2 (in %)” value in series [8] (yeast transformed with pOTE2.1 (Table 19)) is 70.4%.
In the case of `CCCCC/C=C\C/C=C\C/C=C\CCCCCCC(=O)O` [20:3^Δ8,11,14, dihomo-γ-linolenic acid], the “conversion by PtELO6” value in series [1] is reported as “not converted”. For the same molecule, the “Conversion … by ELO(XI) in %” value in series [2] was found to be 5%. Also, in [3], the “Conversion … by ELO(Ci) in %” value amounted to 10%.
For the molecule `CC/C=C\C/C=C\C/C=C\C/C=C\C/C=C\C/C=C\CCC(=O)O` [22:6^Δ4,7,10,13,16,19, docosahexaenoic acid], in series [2], the “Conversion … by ELO(XI) in %” value came out at 0%. Moreover, the “Conversion … by ELO(Ci) in %” value in [3] is recorded as 0%.
`CCCCCCCCCCCCCCCCCC(=O)O` [18:0]: in series [2], the “Conversion … by ELO(XI) in %” value is recorded as 2%. In series [3], the “Conversion … by ELO(Ci) in %” value is given as 0%.
Taken in the same sequence, the figures for `CCCCCC/C=C\CCCCCCCC(=O)O` [16:1^Δ9, palmitoleic acid] were 0% and 0%.
As for `CC/C=C\C/C=C\C/C=C\C/C=C\C/C=C\CCCC(=O)O` [20:5^Δ5,8,11,14,17, eicosapentaenoic acid], the conversion rate in series [4] (setting [14]) is listed as 22.01%; in series [4] (when feeding GLA and EPA together), 9.99%. Besides, in series [5] (yeast with pYes3-OmElo3 and blank vector pYes2, fed 20:5 ω3), the “elongation of 20:5 ω3 to 22:5 ω3” value was 65%. The results for the “conversion rate in %” value in series [6] (50 μm fatty acid fed) and in series [6] (setting [15]) were 41% and 8%, respectively. In series [2], the “Conversion … by ELO(XI) in %” value turned out to be 10%. The “Conversion … by ELO(Ci) in %” value in series [3] worked out at 15%. Moreover, the “Conversion rate of OtElo1.2 (in %)” value in series [9] turned out to be 68.6%. Also, in [10], the “Conversion rate of OtElo1 (in %)” value amounted to 46.8 ± 3.6%.
Turning to `CCCCC/C=C\C/C=C\CCCCCCCC(=O)O` [18:2^Δ9,12, linoleic acid], the “Conversion … by ELO(XI) in %” value in series [2] was 3%. Further, in series [3], the “Conversion … by ELO(Ci) in %” value worked out at 23%.
In the case of `CC/C=C\C/C=C\C/C=C\CCCCCCCCCC(=O)O` [20:3^Δ11,14,17], the “conversion by PtELO6” value in series [1] is “not converted”. In addition, the “Conversion … by ELO(XI) in %” value in series [2] came out at 13%. Further, the “Conversion … by ELO(Ci) in %” value in series [3] is listed as 8%.
Regarding `CCCCC/C=C\C/C=C\CC/C=C\CCCC(=O)O` [18:3^Δ5,9,12, pinolenic acid (all-cis-5,9,12-octadecatrienoic acid)], the “Conversion … by ELO(XI) in %” value in [2] is listed as 13%. In series [3], the “Conversion … by ELO(Ci) in %” value was 38%.
The molecule `CCCCC/C=C\C/C=C\C/C=C\CCCCC(=O)O` [18:3^Δ6,9,12, γ-linolenic acid] came in with a conversion rate in series [4] of 65.28%. Further, in series [6] (setting [15]), the “conversion rate in %” value was determined as 74.9%. Besides, the “Conversion … by ELO(XI) in %” value in series [2] came out at 12%. The “Conversion … by ELO(Ci) in %” value in series [3] came out at 10%. Further, the “Conversion rate of OtElo2 (in %)” value in series [7] is recorded as 15.3%. Further, the “Conversion rate of OtElo2.2 (in %)” value in [8] is 55.7%.
On to `CCCCC/C=C\C/C=C\C/C=C\C/C=C\CCCC(=O)O` [20:4^Δ5,8,11,14, arachidonic acid], for which the conversion rate in series [4] (setting [14]) was 14.47%. The “conversion rate in %” value in series [6] (setting [15]) amounted to 20.3%. Further, the “conversion by PtELO6” value in series [1] was “not converted”. The “Conversion … by ELO(XI) in %” value in [2] stood at 15%. Also, the “Conversion … by ELO(Ci) in %” value in series [3] is 10%. For the same molecule, the “Conversion rate of OtElo1.2 (in %)” value in [9] is recorded as 38.0%. For the same molecule, the “Conversion rate of OtElo1 (in %)” value in series [10] is 10.8 ± 0.6%.
As for `CCCCCCCCCCCCCCCC(=O)O` [16:0], in [2], the “Conversion … by ELO(XI) in %” value turned out to be 3%. The “Conversion … by ELO(Ci) in %” value in [3] is 0%.

B1: TpELO3: Δ6-elongase from Thalassiosira pseudonana, SEQ ID NO: 45 (protein, listed as Thalassiosira pseudonana)
chain: MDAYNAAMDKIGAAIIDWSDPDGKFRADREDWWLCDFRSAITIALIYIAFVILGSAVMQSLPAMDPYPIKFLYNVSQIFLCAYMTVEAGFLAYRNGYTVMPCNHFNVNDPPVANLLWLFYISKVWDFWDTIFIVLGKKWRQLSFLHVYHHTTIFLFYWLNANVLYDGDIFLTILLNGFIHTVMYTYYFICMHTKDSKTGKSLPIWWKSSLTAFQLLQFTIMMSQATYLVFHGCDKVSLRITIVYFVSLLSLFFLFAQFFVQSYMAPKKKKSA
modifications: CDS (1)..(819): Delta-5 elongase
With B1, the “% conversion, column 5” value in [11] (fed 250 μm arachidonic acid) is reported as 0%. Further, the “% conversion, column 6” value in series [11] (fed 250 μm eicosapentaenoic acid) was 0%. Further, the “% conversion, column 4” value in series [11] (fed 250 μm stearidonic acid) amounted to 85%. In addition, in series [11] (fed 250 μm γ-linolenic acid), the “% conversion, column 3” value was determined as 75%.

B2: OmELO2: gene product from Oncorhynchus mykiss, SEQ ID NO: 51, expressed in yeast (protein)
chain: MASTWQSVQSMRQWILENGDKRTDPWLLVYSPMPVAIIFLLYLGVVWAGPKLMKRREPVDLKAVLIVYNFAMVCLSVYMFHEFLVTSLLSNYSYLCQPVDYSTSPLAMRMAKVCWWFFFSKVIELADTVFFILRKKNSQLTFLHVYHHGTMIFNWWAGVKYLAGGQSFFIGLLNTFVHIVMYSYYGLAALGPHTQKYLWWKRYLTSLQLLQFVLLTTHTGYNLFTECDFPDSMNAVVFAYCVSLIALFSNFYYQSYLNRKSKKT
modifications: Oncorhynchus mykiss; CDS (1)..(795): Delta-5 elongase
As to B2, the elongase activity result in series [12] is reported as “no elongase activity”.

B3: OmELO3: elongase from Oncorhynchus mykiss, SEQ ID NO: 53 (protein)
chain: METFNYKLNMYIDSWMGPRDERVQGWLLLDNYPPTFALTVMYLLIVWMGPKYMRHRQPVSCRGLLLVYNLGLTILSFYMFYEMVSAVWHGDYNFFCQDTHSAGETDTKIINVLWWYYFSKLIEFMDTFFFILRKNNHQITFLHIYHHASMLNIWWFVMNWVPCGHSYFGASLNSFIHVLMYSYYGLSAVPALRPYLWWKKYITQVQLIQFFLTMSQTICAVIWPCDFPRGWLYFQIFYVITLIALFSNFYIQTYKKHLVSQKKEYHQNGSVASLNGHVNGVTPTETITHRKVRGD
modifications: Oncorhynchus mykiss; CDS (1)..(885): Delta-5 elongase
On to B3, for which the elongase activity entry in [13] is listed as “pronounced activity”.

(Values after patent publication US10035989B2, “Method for producing polyunsaturated fatty acids in transgenic plants” (BASF Plant Science GmbH, priority 2004, dated 2018).)
